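These data come from cells grown in 96-well plates and exposed to compound for 48 hours at five concentrations. The concentration for 50% growth inhibition is given as GI50.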 Active and inactive are the calls of the source. Rule as the data show it: active = GI50 up to about 1.1 µM and inactive = higher.
Key:
Assay in all cases: NCI-60 cell line screen, 48 h
[1] = test system: CCRF-CEM
[2] = test system: CAKI-1
[3] = test system: OVCAR-3
[4] = test system: HOP-62
[5] = test system: LXFL 529
[6] = test system: SN12C
[7] = test system: SNB-75
[8] = test system: OVCAR-8
[9] = test system: KM12
[10] = test system: SK-MEL-2
[11] = test system: UO-31
[12] = test system: NCI-H226
[13] = test system: M19-MEL
[14] = test system: TK-10
[15] = test system: EKVX
[16] = test system: U-251
[17] = test system: OVCAR-5
[18] = test system: RXF 393
[19] = test system: SNB-78
[20] = test system: KM-20L2

Measured: GI50

O=C1COc2cc3c(cc2N1)SCCC(=O)N3
inactive: [1] > 100 µM | [2] > 100 µM | [3] > 100 µM | [4] > 100 µM | [5] > 100 µM | [6] > 100 µM | [7] > 100 µM | [8] > 100 µM | [9] > 100 µM | [10] > 100 µM | [11] > 100 µM | [12] > 100 µM | [13] > 100 µM | [14] > 100 µM | [15] > 100 µM

CC(=O)Oc1c2c(c(O)c3ccccc13)C(n1cnc3c(ncn3C3OC(CO)C4OC(C)(C)OC43)c1=N)CCC2 (centres undefined)
inactive: [1] 5.24 µM | [2] 25.4 µM | [3] 14.5 µM | [4] 16.7 µM | [16] 18.9 µM | [6] 18.1 µM | [7] 17.5 µM | [8] 11.2 µM | [17] 21.2 µM | [9] 14.4 µM | [10] 15.4 µM | [18] 18.3 µM | [11] 16.2 µM | [19] 23 µM | [12] 23.3 µM | [13] 11.6 µM | [14] 21.5 µM | [20] 21.6 µM | [15] 22.2 µM

Cc1cccc(C(C)(C)C)c1NC(=O)CC1Sc2ccccc2NC1=O (centres undefined)
inactive: [1] 55.7 µM | [2] 87.3 µM | [3] 55.7 µM | [4] > 100 µM | [16] 25.6 µM | [5] 52.6 µM | [6] > 100 µM | [7] > 100 µM | [8] 94.2 µM | [17] > 100 µM | [9] 95.1 µM | [11] 60.5 µM | [12] 94.2 µM | [13] 66.8 µM | [14] 41.7 µM | [20] > 100 µM | [15] > 100 µM

CC(C#N)c1cn(S(=O)(=O)c2ccccc2)c2ccccc12 (centres undefined)
inactive: [1] 48.8 µM | [2] 34.6 µM | [3] 53.1 µM | [4] 37.5 µM | [16] > 100 µM | [5] 34.9 µM | [7] 8.95 µM | [8] 80.7 µM | [17] > 100 µM | [9] 72.1 µM | [10] 37.1 µM | [11] 15.8 µM | [12] 25.7 µM | [13] 42.5 µM | [14] > 100 µM | [20] 67.8 µM

CC#C[C@@]1(O)CCCCC1O (some centres undefined)
inactive: [1] > 100 µM | [3] > 100 µM | [4] > 100 µM | [16] > 100 µM | [6] > 100 µM | [7] 66.8 µM | [8] > 100 µM | [9] > 100 µM | [10] > 100 µM | [18] > 100 µM | [11] > 100 µM | [19] > 100 µM | [12] > 100 µM | [13] > 100 µM | [14] > 100 µM | [20] > 100 µM | [15] > 100 µM

From ChEMBL document CHEMBL1201862, “PubChem BioAssay data set” (2004)
